Test results: patent publication US6720346B2, “Thiazole benzamide derivatives and pharmaceutical compositions for inhibiting cell proliferation” (Agouron Pharmaceuticals, Inc., priority 2001, dated 2004)
Where a name gives a salt, the structure may show the parent alone.

Key:
HCT-116 cell line = experiment: Inhibition of cell growth, MTT tetrazolium salt assay; type: cell-based; conditions: for IC50: Homo sapiens, HCT-116, 120 h, MTT, three to five days
In short: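 Cells in McCoy's 5A medium were given 4 h before compound addition in 0.5% (v/v) DMSO, then incubated 3–5 days at 37 °C, 5% CO2. After 4 h with 0.2 mg/mL MTT, DMSO-solubilized formazan was read at 540 nm; 50% and 90% growth-inhibitory concentrations came from semi-log plots against vehicle controls.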

human CDK4/cyclin D3 = biological target: T1, human CDK4/cyclin D3 (Homo sapiens, UniProt P11802); experiment: Inhibition of CDK4/cyclin D retinoblastoma kinase activity (Ki; % inhibition); type: biochemical; conditions: for Ki: apparent Ki, CDK4/cyclin D3, Rb substrate
T1 construct: made in house; host or cells: insect cells co-infected with baculovirus vectors
In short: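 Radiometric filter-binding read-out: Rb residues 386-928 phosphorylated by 5 nM CDK4/cyclin D3(1-264) from baculovirus-infected insect cells, 25 μM ATP, HEPES pH 7.4, 30 °C. Run 20 min, or 60 min for tight-binding inhibitors. Screening at 30 nM theoretical compound; apparent Ki by competitive-inhibition fitting.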

CDK2/cyclin A = biological target: T2, CDK2/cyclin A (Homo sapiens, UniProt P24941); experiment: Inhibition of CDK2/cyclin A retinoblastoma kinase activity (Ki; % inhibition); type: biochemical; conditions: for Ki: apparent Ki, CDK2/cyclin A, Rb substrate
T2 construct: made in house; host or cells: CDK2: insect cells (baculovirus); cyclin A: E. coli
In short: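 Apparent Ki values came from fitting concentration-dependent activity data to competitive (or competitive tight-binding) models, and % inhibition from single 30 nM screens of library compounds. Activity was measured as ³²P/³³P incorporation from 25 μM ATP into an Rb substrate by 10 or 19 nM CDK2/delta cyclin A at 30 °C over 60–75 min, pH 7.4.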

[1] = HCT-116 cells, 0.25 μM compound

T1 sequence (P11802 whole entry): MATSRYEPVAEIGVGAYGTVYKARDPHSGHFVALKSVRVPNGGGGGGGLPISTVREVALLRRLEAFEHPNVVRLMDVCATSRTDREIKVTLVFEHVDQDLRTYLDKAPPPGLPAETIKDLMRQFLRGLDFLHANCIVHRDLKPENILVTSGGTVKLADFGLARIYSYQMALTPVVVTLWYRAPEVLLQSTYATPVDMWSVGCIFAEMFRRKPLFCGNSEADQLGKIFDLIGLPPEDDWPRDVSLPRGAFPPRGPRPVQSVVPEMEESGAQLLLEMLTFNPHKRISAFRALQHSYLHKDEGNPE
T1 sequence (P30281 1-264 partner limits assumed): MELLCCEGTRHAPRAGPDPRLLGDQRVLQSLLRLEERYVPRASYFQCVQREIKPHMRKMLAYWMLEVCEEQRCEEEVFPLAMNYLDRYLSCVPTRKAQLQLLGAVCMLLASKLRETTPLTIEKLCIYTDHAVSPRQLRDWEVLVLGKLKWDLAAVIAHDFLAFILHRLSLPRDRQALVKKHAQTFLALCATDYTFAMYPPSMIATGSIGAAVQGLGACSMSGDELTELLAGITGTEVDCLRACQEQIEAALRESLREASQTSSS

SMILES	HCT-116 % Inhibition at 0.1 μM (HCT-116 cell line; HCT-116 cells, 0.1 μM compound) [%]	HCT-116 % Inhibition at 0.25 μM (HCT-116 cell line; [1]) [%]	CDK4 % Inhibition at 0.03 μM (human CDK4/cyclin D3; 0.03 μM compound) [%]	CDK2 % Inhibition at 0.03 μM (CDK2/cyclin A; 0.03 μM compound) [%]	HCT-116 % Inhibition at 0.25 μM (HCT-116 cell line; HCT-116, at 0.25 μM) [%]	CDK4 % Inhibition at 0.03 μM (human CDK4/cyclin D3; at 0.03 μM) [%]	CDK2 % Inhibition at 0.03 μM (CDK2/cyclin A; at 0.03 μM) [%]	HCT-116 % Inhibition at 0.1 μM (HCT-116 cell line; HCT-116, at 0.1 μM) [%]	other results
CC1(C)CC(CNC(=O)c2ccc(Nc3nc(N)c(C(=O)c4c(F)cccc4F)s3)cc2)C(C)(C)N1 (stereo not shown) [Example A56, 4-[4-Amino-5-(2,6-difluoro-benzoyl)-thiazol-2-ylamino]-N-(2,2,5,5-tetramethyl-pyrrolidin-3R,S-ylmethyl)-benzamide Dihydrochloride Salt]									IC50 (HCT-116 cell line): 4500 nM; Ki (human CDK4/cyclin D3): 8 nM; Ki (CDK2/cyclin A): 67 nM
COc1cccc(CCNC(=O)c2ccc(Nc3nc(N)c(C(=O)c4c(F)cccc4F)s3)cc2)c1OC [Example G203]	18	53	20	7					
CN1C[C@H](O)C[C@H]1CNC(=O)c1ccc(Nc2nc(N)c(C(=O)c3c(F)cccc3F)s2)cc1 [Example A54, 4-{4-Amino-5-(2,6-difluoro-benzoyl)-thiazol-2-ylamino]-N-(4R-hydroxy-1-methyl-pyrrolidin-2S-yl-methyl)-benzamide]									IC50 (HCT-116 cell line): 600 nM; Ki (human CDK4/cyclin D3): 9 nM; Ki (CDK2/cyclin A): 52 nM
C=CCNC(=O)c1ccc(Nc2nc(N)c(C(=O)c3c(F)cccc3F)s2)cc1 [Example G219]	8	52	13	10					
CCN(CCO)C(=O)c1ccc(Nc2nc(N)c(C(=O)c3c(F)cccc3F)s2)cc1 [Example G25]					52	10	−16		
Cc1ccc(CNC(=O)c2ccc(Nc3nc(N)c(C(=O)c4c(F)cccc4F)s3)cc2)cc1 [Example G253]	19	62	26	16					
CC(C)c1cccc(NC(=O)c2ccc(Nc3nc(N)c(C(=O)c4c(F)cccc4F)s3)cc2)c1 [Example G389]	11	61	4	−12					
CN(C(=O)c1ccc(Nc2nc(N)c(C(=O)c3c(F)cccc3F)s2)cc1)C1CCCC1 [Example G80]					36	7	3		
CC(O)c1ccc(NC(=O)c2ccc(Nc3nc(N)c(C(=O)c4c(F)cccc4F)s3)cc2)cc1 (stereo not shown) [Example G94]					80	4	10	38	
Nc1nc(Nc2ccc(C(=O)Nc3ccc4c(c3)S(=O)(=O)C=C4)cc2)sc1C(=O)c1c(F)cccc1F [Example G115]					88	24	27	30	
C[C@@H](CNC(=O)c1ccc(Nc2nc(N)c(C(=O)c3c(F)cccc3F)s2)cc1)N(C)C [Example A42, 4-[4-Amino-5-(2,6-difluoro-benzoyl)-thiazol-2-ylamino]-N-(2S-dimethylamino-propyl)-benzamide]									IC50 (HCT-116 cell line): 150 nM; Ki (human CDK4/cyclin D3): 23 nM; Ki (CDK2/cyclin A): 165 nM
Nc1nc(Nc2ccc(C(=O)NCCCN3CCCCC3)cc2)sc1C(=O)c1c(F)cccc1F [Example G128]					78	41	15	23	
Nc1nc(Nc2ccc(C(=O)NC3CC3)cc2)sc1C(=O)c1c(F)cccc1F [Example G123]					50	12	−5	4	
CN(Cc1ccco1)C(=O)c1ccc(Nc2nc(N)c(C(=O)c3c(F)cccc3F)s2)cc1 [Example G307]	8	54	12	−3					
Nc1ccc(CCNC(=O)c2ccc(Nc3nc(N)c(C(=O)c4c(F)cccc4F)s3)cc2)cc1 [Example G105]					67	9	3	24	
Nc1nc(Nc2ccc(C(=O)NCC(O)c3ccccc3)cc2)sc1C(=O)c1c(F)cccc1F (stereo not shown) [Example G391]	11	50	−7	1					
CCOC(=O)N1CCC(NC(=O)c2ccc(Nc3nc(N)c(C(=O)c4c(F)cccc4F)s3)cc2)CC1 [Example G231]	6	55	30	15					
CC(CNC(=O)c1ccc(Nc2nc(N)c(C(=O)c3c(F)cccc3F)s2)cc1)c1ccccc1 (stereo not shown) [Example G118]					48	21	11	5	
CCOC(=O)c1ccc(NC(=O)c2ccc(Nc3nc(N)c(C(=O)c4c(F)cccc4F)s3)cc2)cc1 [Example G190]					55	4	5	9	
COc1ccc(CCNC(=O)c2ccc(Nc3nc(N)c(C(=O)c4c(F)cccc4F)s3)cc2)cc1OC [Example G241]	28	57	29	22					
C=CCN(C)C(=O)c1ccc(Nc2nc(N)c(C(=O)c3c(F)cccc3F)s2)cc1 [Example G27]					60	4	−6		
Nc1nc(Nc2ccc(C(=O)NCCc3ccc(Cl)cc3Cl)cc2)sc1C(=O)c1c(F)cccc1F [Example G196]					48	13	7	13	
Cc1ccc(NC(=O)c2ccc(Nc3nc(N)c(C(=O)c4c(F)cccc4F)s3)cc2)cc1Cl [Example G8]					50	−5	−1		
CCN1CCCC1CNC(=O)c1ccc(Nc2nc(N)c(C(=O)c3c(F)cccc3F)s2)cc1 (stereo not shown) [Example G154]					91	34	10	17	
Nc1nc(Nc2ccc(C(=O)Nc3cccc(C(F)(F)F)c3)cc2)sc1C(=O)c1c(F)cccc1F [Example G371]	27	53	7	11					
Nc1nc(Nc2ccc(C(=O)NCc3ccccc3)cc2)sc1C(=O)c1c(F)cccc1F [Example G181]					75	36	30	28	
Nc1nc(Nc2ccc(C(=O)N3CCN(C(=O)c4ccco4)CC3)cc2)sc1C(=O)c1c(F)cccc1F [Example G32]					55	27	8		
Nc1nc(Nc2ccc(C(=O)NCCn3ccnc3)cc2)sc1C(=O)c1c(F)cccc1F [Example A55, 4-[4-Amino-5-(2,6-difluoro-benzoyl)-thiazol-2-ylamino]-N-[2-(imidazol-1-yl)-ethyl]-benzamide Dihydrochloride Salt]									IC50 (HCT-116 cell line): 3200 nM; Ki (human CDK4/cyclin D3): 17 nM; Ki (CDK2/cyclin A): 56 nM
